≈ marks a conversion by molar mass, not a printed value.
Experiments:
Homo sapiens = species: Homo sapiens; experiment: Induction of elastase release in human PMNC assessed as increase in p-nitroanilide formation; assay type: functional
[1] = Antiinflammatory activity against cytochalasin-activated human PMNC assessed as inhibition of platelet activating factor-induced elastase release by p-nitroanilide formation assay; assay type: functional

SMILES	Activity (Homo sapiens)	IC50 [1] [µg/mL]
C[C@H]1O[C@@H](O[C@H]2[C@@H](O)C[C@H](O[C@H]3[C@@H](O)C[C@H](O[C@H]4CC[C@@]5(C)[C@H](CC[C@@H]6[C@@H]5CC[C@]5(C)[C@@H](C7=CC(=O)OC7)CC[C@]65O)C4)O[C@@H]3C)O[C@@H]2C)C[C@H](O)[C@@H]1O	Dose-dependent effect	–
C[C@@H]1C(=O)O[C@H]2[C@H](O)[C@@]34[C@H]5C[C@@H](C(C)(C)C)[C@]36[C@@H](OC(=O)[C@@H]6O)O[C@@]4(C(=O)O5)[C@@]12O [GINKOLIDE B]	–	72 (≈ 170 µM)

From ChEMBL document CHEMBL1156401, “A neutrophil multitarget functional bioassay to detect anti-inflammatory natural products” (J Nat Prod, 2002)
